For 11 compounds, IC50 results are on record in patent publication US6596719B1 (Actelio Pharmaceuticals Ltd., priority 1999, dated 2003).

Experiment [1] addresses T1, human recombinant ETA receptors (Homo sapiens, UniProt P25101).
T1 construct: expressed in transfected cells; host or cells: CHO cells (microsomal membranes)
T1 sequence (P25101 21-427): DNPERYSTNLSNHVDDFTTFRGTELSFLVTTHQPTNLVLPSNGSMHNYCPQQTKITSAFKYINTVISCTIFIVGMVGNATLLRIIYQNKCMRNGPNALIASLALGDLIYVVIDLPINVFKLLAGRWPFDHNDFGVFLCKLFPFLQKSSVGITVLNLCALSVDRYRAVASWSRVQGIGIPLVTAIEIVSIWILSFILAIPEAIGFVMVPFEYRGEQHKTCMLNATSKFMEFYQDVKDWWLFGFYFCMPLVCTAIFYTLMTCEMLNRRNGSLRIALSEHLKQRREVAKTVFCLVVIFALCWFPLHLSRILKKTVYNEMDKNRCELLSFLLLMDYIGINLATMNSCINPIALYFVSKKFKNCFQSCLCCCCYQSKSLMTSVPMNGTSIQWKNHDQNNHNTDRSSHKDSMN
The experiment is described as follows: Inhibition of endothelin binding to membranes from CHO cells carrying human ET receptors (ETA).

Experiment [2] deals with T2, human recombinant ETB receptors (Homo sapiens, UniProt P24530).
T2 construct: expressed in transfected cells; host or cells: CHO cells (microsomal membranes)
T2 sequence (P24530 27-442): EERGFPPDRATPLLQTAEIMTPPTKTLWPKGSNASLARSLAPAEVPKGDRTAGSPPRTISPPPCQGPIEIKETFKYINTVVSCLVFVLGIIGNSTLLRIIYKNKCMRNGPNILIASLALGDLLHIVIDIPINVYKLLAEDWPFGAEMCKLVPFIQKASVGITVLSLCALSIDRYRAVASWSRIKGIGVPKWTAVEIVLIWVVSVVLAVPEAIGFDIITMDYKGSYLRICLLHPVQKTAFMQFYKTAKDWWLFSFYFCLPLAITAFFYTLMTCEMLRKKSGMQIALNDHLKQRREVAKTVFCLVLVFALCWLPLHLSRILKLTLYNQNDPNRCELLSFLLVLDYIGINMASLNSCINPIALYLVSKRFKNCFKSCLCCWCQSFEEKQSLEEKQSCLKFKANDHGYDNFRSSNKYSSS
The experiment is described as follows: Inhibition of endothelin binding to membranes from CHO cells carrying human ET receptors (ETB). The protocol: 1) Inhibition of Endothelin Binding to Membranes from CHO Cells Carrying Human ET Receptors:
For competition binding studies, membranes of CHO cells expressing human recombinant ETA or ETB receptors were used. Microsomal membranes from recombinant CHO cells were prepared and the binding assay made as previously described (Breu V., et al, FEBS Lett 1993; 334:210).
The assay was performed in 200 uL 50 mM Tris/HCl buffer, pH 7.4, including 25 mM MnCl2, 1 mM EDTA and 0.5% (w/v) BSA in polypropylene microtiter plates. […]. […] After two h, the membranes were filtered on, filterplates containing GF/C filters (Unifilterplates from Canberra Packard S. A. Zürich, Switzerland). To each well, 50 uL of scintillation cocktail was added (MicroScint 20, Canberra Packard S. A. Zürich, Switzerland) and the filter plates counted in a microplate counter (TopCount, Canberra Packard S. A. Zürich, Switzerland).
All the test compounds were dissolved, diluted and added in DMSO. […] […].

[3] abbreviates: membranes of CHO cells expressing human recombinant ETA receptors, 8 pM [125I]ET-1, 2 h at 20° C.
Where [4] appears, read: membranes of CHO cells expressing human recombinant ETB receptors, 8 pM [125I]ET-1, 2 h at 20° C.

Like-named read-outs stand apart in the source and are kept apart here.

In the case of “5-i-propyl-N-[6-(2-ethanesulfonylamino-ethoxy)-5-(o-methoxyphenoxy)-2-cyclopropyl-pyrimidin-4-yl]-pyridine-2-sulfonamide [Example 38]”, the results for the IC50 in experiment [1] (setting [3]) and in experiment [2] (setting [4]) were 0.08 µM and 0.084 µM, respectively. With “5-isopropyl-N-[6-(2-(1-propanesulfonylamino)-ethoxy)-5-(o-methoxyphenoxy)-2-(2-pyridyl)-4-pyrimidinyl]-2-pyridine sulfonamide [Example 72]”, the IC50 (usually the concentration needed to halve the response being measured) was found to be 0.153 µM in experiment [1] (setting [3]) and 0.279 µM in experiment [2] (setting [4]). With `COc1ccccc1Oc1c(NS(=O)(=O)c2ccc(C(C)(C)C)cc2)nc(-c2ncccn2)nc1OCCNS(=O)(=O)C(F)(F)F` [Example 5, p-tert.-butyl-N-[6-(ethoxy-2-trifluoromethanesulfonamido)-5-(o-methoxyphenoxy)-2-(2-pyrimidinyl)-4-pyrimidinyl]benzene-sulfonamide], the IC50 in experiment [1] was 5.56 µM; in experiment [2], 0.356 µM.

In the case of `COc1ccccc1Oc1c(NS(=O)(=O)c2ccc(C(C)(C)C)cc2)nc(-c2ncccn2)nc1OCCNS(=O)(=O)c1ccc(C)cc1` [Example 6, p-tert.-butyl-N-[6-(ethoxy-2-p-toluenesulfonamido)-5-(o-methoxyphenoxy)-2-(2-pyrimidinyl)-4-pyrimidinyl]benzene-sulfonamide], the IC50 in experiment [1] (setting [3]) was found to be 8.3 µM; in experiment [2] (setting [4]), 0.42 µM. The corresponding values for `CCS(=O)(=O)NCCOc1nc(-c2ncccn2)nc(NS(=O)(=O)c2ccc(C(C)(C)C)cc2)c1Oc1ccccc1OC` [Example 8, p-tert.-butyl-N-[6-(ethoxy-2-ethanesulfonamido)-5-(o-methoxyphenoxy)-2-(2-pyrimidinyl)-4-pyrimidinyl]benzene-sulfonamide] are 0.16 µM and 0.13 µM. Consider `COc1ccccc1Oc1c(NS(=O)(=O)c2ccc(C(C)C)cn2)nc(-c2ccncc2)nc1OCCNS(C)(=O)=O` [Example 14, 5-i.-propyl-N-[6-(ethoxy-2-methanesulfonamido)-5-(o-methoxyphenoxy)-2-(4-pyridyl)-4-pyrimidinyl]pyridine-2-sulfonamide], for which the figures for the IC50 in experiment [1] and in experiment [2] were 0.518 µM and 0.451 µM, respectively. In the case of `CCCCS(=O)(=O)NCCOc1nc(-c2ncccn2)nc(NS(=O)(=O)c2ccc(C(C)(C)C)cc2)c1Oc1ccccc1OC` [Example 17, p-tert.-butyl-N-[6-(ethoxy-2-(1-butanesulfonamido))-5-(o-methoxyphenoxy)-2-(2-pyrimidinyl)-4-pyrimidinyl]benzene-sulfonamide], the concentration for half-maximal inhibition (IC50) stood at 1.1 µM in experiment [1] and 0.117 µM in experiment [2]. For the compound `COc1ccccc1Oc1c(NS(=O)(=O)c2ccc(C(C)C)cn2)nc(-c2cc(OC)c(OC)c(OC)c2)nc1OCCNS(=O)(=O)C(C)C` [Example 18], the concentration for half-maximal inhibition (IC50) in experiment [1] was 0.209 µM; in experiment [2], 1.05 µM. Regarding `COc1ccccc1Oc1c(NS(=O)(=O)c2ccc(C(C)C)cn2)nc(C)nc1OCCNS(=O)(=O)c1ccc(C)cc1` [Example 21, 5-i.-propyl-N-[6-(ethoxy-2-p-toluenesulfonamido)-5-(o-methoxyphenoxy)-2-methyl-4-pyrmidinyl]pyridine-2-sulfonamide], the IC50 in experiment [1] stood at 0.881 µM; in experiment [2] it was 0.0218 µM. Take `COc1ccccc1Oc1c(NS(=O)(=O)c2ccc(C)cn2)nc(N2CCOCC2)nc1OCCNS(=O)(=O)c1cccs1` [Example 58, 5-methyl-N-[6-(2-(thiophene-2-sulfonylamino)-ethoxy)-5-(o-methoxyphenoxy)-2-(N-morpholino)-4-pyrimidinyl]-2-pyridine sulfonamide]: the IC50 in experiment [2] (setting [4]) amounted to 0.447 µM.

Turning to `COc1ccccc1Oc1c(NS(=O)(=O)c2ccc(C(C)(C)C)cc2)nc(-c2ncccn2)nc1OCCCNS(=O)(=O)c1cccs1` [Example 90, 4-tert.-butyl-N-[6-(3-(2-thiophenesulfonylamino)-propoxy)-5-(o-methoxyphenoxy)-2-pyrimidinyl-4-pyrimidinyl]-benzene-sulfonamide], the IC50 in experiment [2] stood at 0.0041 µM.
